# Assay results published in paper PMC10584170, “Machine learning-based phenotypic imaging to characterise the targetable biology of Plasmodium falciparum male gametocytes for the development of transmission-blocking antimalarials” (PLOS Pathogens, 2023).
# Key:
# [1] = tested on: P. falciparum male gametocytes; experiment: P. falciparum Dual Gamete Formation Assay (PfDGFA), male readout (exflagellation); assay type: cell-based, Plasmodium falciparum NF54; conditions: for Average inhibition male (%): average of replicates; for % inhibition male (individual replicates) R1: replicate R1; for % inhibition male (individual replicates) R3: replicate R3; for % inhibition male (individual replicates) R4: replicate R4; for Activity: hit = >50% inhibition in male or female readout in at least 3 replicates, 0 = no class assigned
# Summary of the method: (§1)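 Mature NF54 gametocytes (day 14) were incubated with compound for 24 h at 37°C under 1% O2/3% CO2, then triggered with xanthurenic acid ookinete medium plus Cy3-anti-Pfs25. Exflagellation was imaged by brightfield; after a further 24 h at 28°C, Pfs25-positive female gametes were imaged by fluorescence and counted by automated image analysis.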
# [2] = tested on: P. falciparum female gametocytes; experiment: P. falciparum Dual Gamete Formation Assay (PfDGFA), female readout (Pfs25-positive female gametes); assay type: cell-based, Plasmodium falciparum NF54; conditions: for Average inhibition female (%): average of replicates; for % inhibition female (individual replicates) R1: replicate R1; for % inhibition female (individual replicates) R3: replicate R3; for % inhibition female (individual replicates) R4: replicate R4
# Summary of the method: as §1
# [3] = 2µM, 24h preincubation with gametocytes prior to induction of gametogenesis
# [4] = 2µM, 24h preincubation, number of replicates with >50% inhibition in the male readout
# [5] = 2µM, 24h preincubation, number of replicates with >50% inhibition in the female readout
# [6] = PfDGFA at 2µM, 24h preincubation with gametocytes
# [7] = number of replicates with >50% inhibition in the male readout, 2µM
# [8] = number of replicates with >50% inhibition in the female readout, 2µM
# [9] = PfDGFA at 2µM, 24h preincubation with gametocytes prior to induction of gametogenesis
# [10] = PfDGFA at 2µM, 24h preincubation
# [11] = 2µM, 24h preincubation, hits selected on >50% inhibition in the male readout across replicates
# [12] = 2µM, 24h preincubation, hits selected on >50% inhibition in the female readout across replicates
SMILES,"Average inhibition male (%) [1, 3] [%]","% inhibition male (individual replicates) R1 [1, 3] [%]","% inhibition male (individual replicates) R3 [1, 3] [%]","% inhibition male (individual replicates) R4 [1, 3] [%]","HitlevelM [1, 4]","Average inhibition female (%) [2, 3] [%]","% inhibition female (individual replicates) R1 [2, 3] [%]","% inhibition female (individual replicates) R3 [2, 3] [%]","% inhibition female (individual replicates) R4 [2, 3] [%]","HitlevelF [2, 5]","HitlevelM [1, 11]","Activity [1, 10]","HitlevelF [2, 12]",further results
O=C(C1CC1c1ccccc1)N(Cc1ccc(-c2ccc(CNCCc3ccccc3)cc2)cc1)C1CCNCC1.O=C(O)C(F)(F)F (stereo not drawn) [TCMDC-141443],40.0,61.6,28.4,57.9,2,24.9,19.9,29.6,18.3,0,–,–,–,–
O=C(CCC1CCCC1)N(Cc1ccc(-c2ccc(CNCCc3ccccc3)cc2)cc1)C1CCCNC1.O=C(O)C(F)(F)F (stereo not drawn) [TCMDC-141444],–,–,–,–,–,–,–,–,–,–,–,–,–,"Average inhibition male (%) [1, 6]: 71.0%; % inhibition male (individual replicates) R1 [1, 6]: 62.4%; % inhibition male (individual replicates) R3 [1, 6]: 42.1%; % inhibition male (individual replicates) R4 [1, 6]: 88.2%; HitlevelM [1, 7]: 3; Average inhibition female (%) [2, 6]: 21.8%; % inhibition female (individual replicates) R1 [2, 6]: 31.1%; % inhibition female (individual replicates) R3 [2, 6]: 20.3%; % inhibition female (individual replicates) R4 [2, 6]: 22.2%; HitlevelF [2, 8]: 0"
CC(C)CC(=O)N(Cc1ccc(-c2ccc(CNC3Cc4ccccc4C3)cc2)cc1)C1CCNCC1.O=C(O)C(F)(F)F [TCMDC-141449],48.3,49.9,28.4,64.9,2,21.5,24.4,9.8,34.2,0,–,–,–,–
O=C(COc1ccccc1)N(Cc1ccc(-c2ccc(CNC3Cc4ccccc4C3)cc2)cc1)C1CCNCC1.O=C(O)C(F)(F)F [TCMDC-141450],–,–,–,–,–,–,–,–,–,–,–,–,–,"% inhibition male (individual replicates) R1 [1, 9]: 15.3%; % inhibition male (individual replicates) R3 [1, 9]: -5.5%; % inhibition male (individual replicates) R4 [1, 9]: 33.6%; Average inhibition male (%) [1, 10]: 16.7%; % inhibition female (individual replicates) R1 [2, 9]: 8.2%; % inhibition female (individual replicates) R3 [2, 9]: -25.4%; % inhibition female (individual replicates) R4 [2, 9]: -2.6%; Average inhibition female (%) [2, 10]: -0.0825%"
CN(C)CCCNCc1ccc(-c2ccc(CNCCOc3ccccc3)cc2)cc1.O=C(O)C(F)(F)F [TCMDC-141457],–,–,–,–,–,–,–,–,–,–,–,–,–,"% inhibition male (individual replicates) R1 [1, 9]: 5.2%; % inhibition male (individual replicates) R3 [1, 9]: 1.0%; % inhibition male (individual replicates) R4 [1, 9]: 30.2%; Average inhibition male (%) [1, 10]: 9.2%; % inhibition female (individual replicates) R1 [2, 9]: 3.5%; % inhibition female (individual replicates) R3 [2, 9]: -18.9%; % inhibition female (individual replicates) R4 [2, 9]: -9.2%; Average inhibition female (%) [2, 10]: -4.9%"
COc1cccc(CCN(Cc2ccccc2-c2ccc(CNC3CC(C)(C)NC(C)(C)C3)cc2)C(=O)NC2CCCCC2)c1.Cl [TCMDC-141577],1.5,8.1,-2.0,2.2,–,13.0,16.8,-15.5,31.4,–,0,0,0,–
CN(C)CCCNc1nccc(N(C)c2ccc(NC(=O)Nc3cc(C(F)(F)F)ccc3F)cc2)n1.O=C(O)C(F)(F)F [TCMDC-141633],62.2,40.8,–,63.9,–,13.3,14.0,9.3,15.1,–,2,0,0,–
O=C(O)C(F)(F)F.c1ccc(CCNCc2ccc(-c3ccc(CNC4CCN(Cc5ccccc5)CC4)cc3)nc2)cc1 [TCMDC-141649],11.3,9.5,-1.4,30.2,–,11.9,20.3,-13.0,18.4,–,0,0,0,–
CCCCCCN1CCC(NCc2ccc(OCCN3CCCC3)cc2)CC1.O=C(O)C(F)(F)F [TCMDC-141663],7.0,26.8,-12.7,-11.8,–,15.8,20.0,13.5,15.0,–,0,0,0,–
CN1CCc2cc(NS(=O)(=O)c3ccc(-c4ccc(Cl)cc4)cc3)c(OCCCN3CCCCC3)cc2CC1.Cl [TCMDC-141754],–,–,–,–,–,–,–,–,–,–,–,–,–,"Average inhibition male (%) [1, 6]: 76.4%; % inhibition male (individual replicates) R1 [1, 6]: 81.6%; % inhibition male (individual replicates) R3 [1, 6]: 46.2%; % inhibition male (individual replicates) R4 [1, 6]: 86.2%; HitlevelM [1, 7]: 3; Average inhibition female (%) [2, 6]: 21.5%; % inhibition female (individual replicates) R1 [2, 6]: 25.0%; % inhibition female (individual replicates) R3 [2, 6]: 13.0%; % inhibition female (individual replicates) R4 [2, 6]: 19.2%; HitlevelF [2, 8]: 0"
Cl.Clc1ccc(C2CCN(CCCOc3ccc4c(c3)CCNCC4)CC2)cc1 [TCMDC-141782],47.0,45.1,27.8,64.2,2,28.4,14.5,2.3,70.0,1,–,–,–,–
Cc1cc(F)ccc1-c1nc(NCCCNCCc2ccccc2)nc2c1ccc(=O)n2-c1c(F)cccc1F.O=C(O)C(F)(F)F [TCMDC-141804],11.7,17.7,-28.8,37.6,0,33.0,27.9,6.6,62.0,1,–,–,–,–
Cc1c(Cn2ncc(N3CCC(N)CC3)c(Cl)c2=O)cccc1NC(=O)Nc1ccc(-c2ccccc2)cc1.O=C(O)C(F)(F)F [TCMDC-141931],36.5,42.7,3.4,40.2,1,48.9,32.2,19.7,64.5,2,–,–,–,–
